The nature of the data set: solvent given as SMILES.
[1] abbreviates: in O=P(c1ccccc1)(c1ccccc1)c1ccccc1Oc1ccccc1P(=O)(c1ccccc1)c1ccccc1.

Turning to `CC(C)(C)c1ccc2c(c1)c1cc(C(C)(C)C)ccc1n2-c1ccc(C#Cc2cccc(C#Cc3ccc(-n4c5ccc(C(C)(C)C)cc5c5cc(C(C)(C)C)ccc54)cc3)c2)cc1`, the emission maximum stood at 435 nm (in CC#N); 359 nm (in CCCCC); 426 nm (in CO); 379 nm (in Cc1ccccc1); 400 nm (in ClC(Cl)Cl); 416 nm (in ClCCl).
For `C[Si](C)(C)[Si](C)(C)c1c2ccccc2cc2ccccc12`, the emission maximum runs as follows: (in C1CCCCC1) 429 nm; (in CC#N) 430 nm.
On to `CC(C)c1cccc(C(C)C)c1N1C(=O)c2cccc3c(Oc4ccc(C(C)(C)C)cc4)ccc(c23)C1=O`, for which, under “in ClCCl”, the emission maximum is 434 nm.
With `CCN(CC)c1ccc(/C=C/c2ccc(-c3ccc(/C=C/c4ccc(N(CC)CC)cc4)s3)s2)cc1`, the emission maximum by setting is: (in C1CCOC1) 544 nm; (in CC#N) 577 nm; (in CC(C)=O) 570 nm; (in CN(C)C=O) 586 nm; (in Cc1ccccc1) 530 nm.
Consider `Fc1ccc2cc3cccc[n+]3cc2c1`, for which, under “in O”, the emission maximum amounted to 408 nm.
As for `CC1=N/C(=C\c2ccncc2)C(=O)N1C`, the emission maximum is recorded as 439 nm (in C1COCCO1); 452 nm (in CC#N); 453 nm (in CCO); 442 nm (in CCOC(C)=O); 464 nm (in O).
On to `F[B-]1(F)n2c(-c3ccccc3)cnc2-c2cccc[n+]21`, for which the emission maximum was 486 nm (in C1CCCCC1); 509 nm (in C1CCOC1); 509 nm (in C1COCCO1); 514 nm (in CC#N); 487 nm (in CCCCCC); 503 nm (in CO). Besides, under “in ClC(Cl)Cl”, the emission maximum was determined as 501 nm.
For `CCCN1/C(=C/C=C/C=C/C2=[N+](CCC)c3ccccc3C2(C)C)C(C)(C)c2ccccc21`, the emission maximum by setting is: (in CO) 659 nm; (in CS(C)=O) 660 nm; (in O) 652 nm.
Take `COc1ccc(C(=O)/C=C/c2ccc(N(C)C)cc2)cc1OC`: the emission maximum reads like this: (in C1CCOC1) 500 nm; (in CC#N) 525 nm; (in CC(=O)O) 513 nm; (in CC(C)=O) 511 nm; (in CCO) 533 nm; (in CN(C)C=O) 523 nm. Also, the emission maximum is given as 535 nm (in CO), 468 nm (in Cc1ccccc1), 507 nm (in ClC(Cl)Cl) and 470 nm (in c1ccccc1).
With `CN(C)c1ccc2nc(-c3ccc(C=C(C#N)C#N)cc3)sc2c1`, the emission maximum by setting is: (in C1CCCCC1) 526 nm; (in ClC(Cl)Cl) 683 nm.
The compound `CCCCCCCCCCCCC(CCCCCCCCCC)Cn1c2cc(/C=C/C=C/c3nc4ccccc4s3)c3cccc4c5cccc6c(/C=C/C=C/c7nc8ccccc8s7)cc1c(c65)c2c34` (centres undefined) displayed an emission maximum (in C1CCCCC1) of 588 nm, an emission maximum (in CC#N) of 608 nm, an emission maximum (in Cc1ccccc1) of 604 nm and an emission maximum (in ClCCl) of 612 nm.
In the case of `CC1(C)c2ccccc2N(c2ccc3c(c2)S(=O)(=O)c2cc(N4c5ccccc5C(C)(C)c5ccccc54)ccc2C3(C)C)c2ccccc21`, the emission maximum amounted to 466.12 nm (in Cc1ccccc1) and 506 nm (in ClCCl).
As for `CCCCN1C(=O)c2cc(Oc3ccc(C(C)(C)C)cc3)c3c4c(Oc5ccc(C(C)(C)C)cc5)cc5c(=O)n6c(c7cc(Oc8ccc(C(C)(C)C)cc8)c(c8c(Oc9ccc(C(C)(C)C)cc9)cc(c2c38)C1=O)c4c57)=Cc1ccc2ccccc2[n+]1[B-]6(F)F`, the emission maximum (in ClCCl) is 684 nm.
`N#Cc1c(-c2ccc(N(c3ccccc3)c3ccccc3)cc2)c(C#N)c(-c2ccc(N(c3ccccc3)c3ccccc3)cc2)c(C#N)c1-c1ccc(N(c2ccccc2)c2ccccc2)cc1`: the emission maximum under setting [1] came to 533 nm.
Compound `CCCCN1C(=O)c2c(Br)c(Br)c3c4c(Br)c(Br)c5c6c(c(Br)c(Br)c(c7c(Br)c(Br)c(c2c37)C1=O)c64)C(=O)N(CCCC)C5=O` had an emission maximum (in ClC(Cl)Cl) of 600 nm.
In the case of `COc1ccc(/C=C/c2cc(/C=C/c3ccc(OC)cc3)nc(/C=C/c3ccc(N(c4ccccc4)c4ccccc4)cc3)n2)cc1`, the emission maximum by setting is: (in C1CCOC1) 511 nm; (in CC#N) 627 nm; (in CC(C)=O) 572 nm; (in CCCCCCC) 439 nm; (in CS(C)=O) 622 nm; (in Cc1ccccc1) 466 nm. Besides, the emission maximum (in ClCCl) worked out at 558 nm.
Consider `COc1ccc(-c2ccc(-c3ccc(C#N)cc3)cc2)cc1`, for which the emission maximum (in C1CCCCC1) worked out at 377 nm.
Compound `Cc1cc(C)c([B-]2(c3c(C)cc(C)cc3C)[O+]=P(c3ccccc3)(c3ccccc3)c3cc(-c4ccc(N(C)C)cc4)sc3-c3sc(-c4ccc(N(C)C)cc4)cc32)c(C)c1` returned an emission maximum (in C1CCOC1) of 552 nm.
`c1ccc(-c2nc(-c3ccccc3)nc(-c3ccc(-n4c5ccccc5c5c6oc7ccccc7c6ccc54)cc3)n2)cc1`: the emission maximum is listed as 393.5 nm (in C1CCCCC1), 473.68 nm (in C1CCOC1), 430.34 nm (in Cc1ccccc1) and 429.14 nm under setting [1].
For `CC1(C)c2ccccc2N(c2ccc3c(c2)C(c2ccccc2)(c2ccccc2)c2cc(N4c5ccccc5C(C)(C)c5ccccc54)ccc2S3(=O)=O)c2ccccc21`, the emission maximum (in Cc1ccccc1) is listed as 448 nm.
Consider `CN(C)c1ccc(/C=C/c2cccnn2)cc1`, for which the emission maximum (in C1CCOC1) was 476 nm; the emission maximum (in CC#N) worked out at 509 nm; the emission maximum (in CCCCCCC) was determined as 459 nm; the emission maximum (in CS(C)=O) came out at 518 nm; the emission maximum (in ClCCl) was determined as 480 nm.
Take `COc1ccc(-c2oc3cccc4c5c(-c6ccc(OC)cc6)/c(=N/S(=O)(=O)C(F)(F)F)oc6cccc(c2c34)c65)cc1`: under “in ClC(Cl)Cl”, the emission maximum came out at 612 nm.
`COc1ccc(C2=[N+]3C(=Nc4c(-c5ccccc5)c(Br)c(-c5ccc(OC)cc5)n4[B-]3(F)F)C(c3ccccc3)=C2Br)cc1`: the emission maximum is recorded as 714 nm (in ClC(Cl)Cl) and 714 nm (in ClCCl).
Compound `N#Cc1c(-n2nnc3c2CCC2C(CC3)[C@@H]2CO)n([C@H]2C[C@H](O)[C@@H](CO)O2)c2ncnc(N)c12` (some centres undefined) came in with an emission maximum (in CO) of 380 nm.
The same measure, in the same setting: the same measure for `CCN(CC)c1ccc(C2=C3C(C)=CC(/C=C/c4ccc(OCCCN=[N+]=[N-])cc4)=[N+]3[B-](F)(F)n3c(C)cc(C)c32)cc1`: 587 nm.
`CN(C)c1ccc(-c2ccc(-c3ncc4ccccn34)cc2)cc1` showed an emission maximum (in ClC(Cl)Cl) of 488 nm.
In turn, `CNc1ccc2c(c1)-c1ccccc1C2=O` showed an emission maximum (in C1CCCCC1) of 489 nm, an emission maximum (in CC#N) of 548 nm, an emission maximum (in CCO) of 583 nm and an emission maximum (in c1ccccc1) of 509 nm.
`CC1(C)c2cc(/C=C/c3nc(/C=C/c4ccc5c(c4)C(C)(C)c4cc(N(c6ccccc6)c6ccccc6)ccc4-5)nc(/C=C/c4ccc5c(c4)C(C)(C)c4cc(N(c6ccccc6)c6ccccc6)ccc4-5)n3)ccc2-c2ccc(N(c3ccccc3)c3ccccc3)cc21` returned an emission maximum (in C1CCOC1) of 555 nm.
As for `CC(=O)OCCN1C(=O)c2cccc3c(Oc4ccc(C=O)cc4)ccc(c23)C1=O`, under “in ClC(Cl)Cl”, the emission maximum was 411 nm.
Regarding `COC(=O)c1ccc(/C=C2\C=C(c3ccccc3)OC2=O)cc1`, the emission maximum (in C1COCCO1) was 495 nm.
Consider `COc1c(C(C)=O)c(=O)oc2cc(N(C)C)ccc12`, for which, where the note is “in ClCCl”, the emission maximum was determined as 419 nm.

The record behind these values is the Deep4Chem optical property database.
